For 22 molecules, IC50, Activity and viability results are on record in ChEMBL document CHEMBL4808252, “Identification of new [1,2,4]triazolo[4,3-a]quinoxalines as potent VEGFR-2 tyrosine kinase inhibitors: Design, synthesis, anticancer evaluation, and in silico studies” (Bioorg Med Chem, 2021).

Experiment [1] deals with HepG2. Briefly: Antiproliferative activity against human HepG2 cells assessed as cell growth inhibition incubated for 4 hrs by MTT assay. The following applies: HepG2, 4 h. Background: Formazan colour is commonly taken as a measure of viable cells.
A further experiment concerns Hepatocyte. In words: Cytotoxicity against rat hepatocytes assessed as reduction in cell growth for 4 hrs by MTT assay.
The next experiment deals with MCF7. Briefly: Antiproliferative activity against human MCF7 cells assessed as cell growth inhibition incubated for 4 hrs by MTT assay. The conditions noted are these: MCF7, 4 h.
Experiment [2] relates to HepG2. Briefly: Cell cycle arrest in human HepG2 cells assessed as accumulation at sub G1 phase at 5.4 uM incubated for 24 hrs by DNA flow cytometric assay (reference value: 1.53 +/- 0.21%). Type of experiment: functional. On the technique in general: A flow cytometer gives signals particle by particle.
Experiment [3] relates to HepG2. Briefly: Cell cycle arrest in human HepG2 cells assessed as accumulation at G1 phase at 5.4 uM incubated for 24 hrs by DNA flow cytometric assay (reference value: 66.40 +/- 3.21%). It is filed as functional.
Experiment [4] deals with HepG2. In words: Cell cycle arrest in human HepG2 cells assessed as accumulation at S phase at 5.4 uM incubated for 24 hrs by DNA flow cytometric assay (reference value: 19.52 +/- 1.55%). It is filed as functional.
Experiment [5] concerns HepG2. In words: Cell cycle arrest in human HepG2 cells assessed as accumulation at G2/M phase at 5.4 uM incubated for 24 hrs by DNA flow cytometric assay (reference value: 12.53 +/- 1.48%). Type of experiment: functional.
The test system of experiment [6] is HepG2. In words: Induction of apoptosis in human HepG2 cells assessed as viable cells at 5.4 uM incubated for 24 hrs by annexinV-FITC/propidium iodide staining based flow cytometry (reference value: 92.54 +/- 1.64 %). Type of experiment: functional. The following applies: read-out: Activity.
The test system of experiment [7] is HepG2. In words: Induction of apoptosis in human HepG2 cells assessed as early apoptotic cells at 5.4 uM incubated for 24 hrs by annexinV-FITC/propidium iodide staining based flow cytometry (reference value: 7.22 +/- 0.64 %). It is filed as functional.
Experiment [8] deals with HepG2. In words: Induction of apoptosis in human HepG2 cells assessed as late apoptotic cells at 5.4 uM incubated for 24 hrs by annexinV-FITC/propidium iodide staining based flow cytometry (reference value: 0.13 +/- 0.01%). It is filed as functional.
Experiment [9] has as its system HepG2. In words: Induction of apoptosis in human HepG2 cells assessed as necrotic cells at 5.4 uM incubated for 24 hrs by annexinV-FITC/propidium iodide staining based flow cytometry (reference value: 0.07 +/- 0.01 %). It is filed as functional.

pIC50: −log10 of the molar value.

Take `CNC(=O)c1cc(Oc2ccc(NC(=O)Nc3ccc(Cl)c(C(F)(F)F)c3)cc2)ccn1` [SORAFENIB]: the pIC50 with HepG2 [1] is 5.66; with Hepatocyte it was 4.78.
Regarding `O=C(Cn1c(=O)c2nncn2c2ccccc21)Nc1ccc(C(=O)NNC(=O)c2ccc([N+](=O)[O-])cc2)cc1`, the pIC50 is 4.51 in the experiment on MCF7 and 4.71 in the experiment on HepG2 [1].
For `Cc1cccc(NC(=O)c2ccc(NC(=O)Cn3c(=O)c4nncn4c4ccccc43)cc2)c1` the same measures were 4.99 and 5.19.
Consider `O=C(CSc1nc2ccccc2n2cnnc12)Nc1ccc(C(=O)NNC(=O)c2ccccc2)cc1`, for which the pIC50 with MCF7 is 4.24; with HepG2 [1], 4.38.
Consider `O=C(Cn1c(=O)c2nncn2c2ccccc21)Nc1ccc(C(=O)Nc2ccc([N+](=O)[O-])cc2)cc1`, for which the negative logarithm of the IC50 (pIC50) in the experiment on MCF7 is 4.29; in the experiment on HepG2 [1], 4.37.
On the same counts, the results for `O=C(Cn1c(=O)c2nncn2c2ccccc21)Nc1ccc(C(=O)Nc2ccc(Cl)cn2)cc1` are 4.15 and 4.32.
As to `O=C(CSc1nc2ccccc2n2cnnc12)Nc1ccc(C(=O)Nc2ccccc2)cc1`, the negative-log IC50 (pIC50) is 5.09 in the experiment with MCF7, 5.27 in the experiment on HepG2 [1] and 4.50 in the experiment with Hepatocyte. The Activity was 1.32% in the experiment with HepG2 [2]; 42.55% in the experiment with HepG2 [3]; 30.12% in the experiment on HepG2 [4]; 25.99% in the experiment with HepG2 [5]; 30.27% in the experiment on HepG2 [7]; 0.22% with HepG2 [8]. For the same molecule, in the experiment on HepG2 [9], the Activity turned out to be 0.14%. Also, the viability at 5.4 µM with HepG2 [6] came out at 69.4%.
Take `O=C(Cn1c(=O)c2nncn2c2ccccc21)Nc1ccc(C(=O)Nc2ccccc2)cc1`: the pIC50 was 4.17 in the experiment with MCF7 and 4.24 in the experiment with HepG2 [1].
For `Cc1cccc(C)c1NC(=O)c1ccc(NC(=O)Cn2c(=O)c3nncn3c3ccccc32)cc1` the same measures were 4.67 and 4.76.
Consider `Cc1cccc(NC(=O)c2ccc(NC(=O)CSc3nc4ccccc4n4cnnc34)cc2)c1`, for which the pIC50 in the experiment with MCF7 is 4.33; with HepG2 [1], 4.63.
For `O=C(CSc1nc2ccccc2n2cnnc12)Nc1ccc(C(=O)NCc2ccccc2)cc1` the same measures were 4.28 and 4.36.
Regarding `O=C(CSc1nc2ccccc2n2cnnc12)Nc1ccc(C(=O)NC2CCCCC2)cc1`, the results for the pIC50 in the experiment with MCF7 and with HepG2 [1] were 4.16 and 4.19, respectively.
`O=C(Cn1c(=O)c2nncn2c2ccccc21)Nc1ccc(C(=O)NNC(=O)c2ccccc2)cc1`: the pIC50 is 4.63 with MCF7 and 4.81 in the experiment on HepG2 [1].
On the same counts, the results for `Cc1ccccc1NC(=O)c1ccc(NC(=O)CSc2nc3ccccc3n3cnnc23)cc1` are 4.42 and 4.50.
For `O=C(Cn1c(=O)c2nncn2c2ccccc21)Nc1ccc(C(=O)NCc2ccccc2)cc1`, the pIC50 was 5.01 with MCF7 and 5.10 with HepG2 [1].
As for `Cc1cccc(C)c1NC(=O)c1ccc(NC(=O)CSc2nc3ccccc3n3cnnc23)cc1`, the pIC50 in the experiment on MCF7 is 4.16; in the experiment with HepG2 [1], 4.27.
As for `O=C(CSc1nc2ccccc2n2cnnc12)Nc1ccc(C(=O)Nc2ccccn2)cc1`, the pIC50 in the experiment on MCF7 is 4.26; in the experiment with HepG2 [1] it was 4.29.
With `O=C(CSc1nc2ccccc2n2cnnc12)Nc1ccc(C(=O)NNc2ccccc2)cc1`, the pIC50 in the experiment with MCF7 was 4.23; with HepG2 [1], 4.42.
On the same counts, the results for `O=C(CSc1nc2ccccc2n2cnnc12)Nc1ccc(C(=O)NNC(=O)c2ccc([N+](=O)[O-])cc2)cc1` are 4.14 and 4.28.
For the molecule `O=C(Cn1c(=O)c2nncn2c2ccccc21)Nc1ccc(C(=O)NC2CCCCC2)cc1`, the pIC50 in the experiment with MCF7 is 4.39; with HepG2 [1] it was 4.62.
For `O=C(CSc1nc2ccccc2n2cnnc12)Nc1ccc(C(=O)Nc2ccc([N+](=O)[O-])cc2)cc1` the same measures were 4.21 and 4.37.
On the same counts, the results for `O=C(CSc1nc2ccccc2n2cnnc12)Nc1ccc(C(=O)Nc2ccc(Cl)cn2)cc1` are 4.91 and 5.08.

The term pIC50 denotes the negative decadic logarithm of the IC50, by convention in mol/L.
